Measurements from patent US9149038B2, “4-amino-6-(heterocyclic)picolinates and 6-amino-2-(heterocyclic)pyrimidine-4-carboxylates and their use as herbicides” (Dow AgroSciences LLC, priority 2013, dated 2015).
Read-outs that look alike come from different tables or passages of the source.

Assays:
[1] = system: Key Grass and Sedge Weeds as well as Grass Crops; assay: Post-Emergent Test II: postemergent herbicidal activity, visual rating after 14 d (Table 8); type: in vivo; conditions: post-emergence, 336 h; for pest or weed control at 35 g/ha: 35 g ai/ha; for pest or weed control at 70 g/ha: 70 g ai/ha; for pest or weed control at 140 g/ha: 140 g ai/ha
Procedure, shortened: (§1)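 Greenhouse plants at first or second true leaf stage sprayed with compound in acetone/DMSO-based spray solution with crop oil concentrate and Triton X-155 at 187 L/ha, tested at highest rate and ½× to 1/16× dilutions; solvent blank controls. Injury rated visually 0–100% versus untreated plants after 14 d.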

[2] = system: Key Broadleaf Weed and Crop Species; assay: Post-Emergent Test II: postemergent herbicidal activity, visual rating after 14 d (Table 7); type: in vivo; conditions: post-emergence, 336 h; for pest or weed control at 35 g/ha: 35 g ai/ha; for pest or weed control at 70 g/ha: 70 g ai/ha; for pest or weed control at 140 g/ha: 140 g ai/ha
Procedure, shortened: as §1

[3] = barnyardgrass (Echinochloa crus-galli), read-out: Visual Growth Reduction (%) 14 Days After Application ECHCG
[4] = giant foxtail (Setaria faberi), read-out: Visual Growth Reduction (%) 14 Days After Application SETFA
[5] = maize, corn (Zea mays), read-out: Visual Growth Reduction (%) 14 Days After Application ZEAMX
[6] = rice (Oryza sativa), read-out: Visual Growth Reduction (%) 14 Days After Application ORYSA
[7] = wheat, spring (Triticum aestivum), read-out: Visual Growth Reduction (%) 14 Days After Application TRZAS
[8] = yellow nutsedge (Cyperus esculentus), read-out: Visual Growth Reduction (%) 14 Days After Application CYPES
[9] = lambsquarters (Chenopodium album), read-out: Visual Growth Reduction (%) 14 Days After Application CHEAL
[10] = oilseed rape, canola (Brassica napus), read-out: Visual Growth Reduction (%) 14 Days After Application BRSNN
[11] = redroot pigweed (Amaranthus retroflexus), read-out: Visual Growth Reduction (%) 14 Days After Application AMARE
[12] = sunflower (Helianthus annuus), read-out: Visual Growth Reduction (%) 14 Days After Application HELAN
[13] = velvetleaf (Abutilon theophrasti), read-out: Visual Growth Reduction (%) 14 Days After Application ABUTH
[14] = wild poinsettia (Euphorbia heterophylla), read-out: Visual Growth Reduction (%) 14 Days After Application EPHHL

| Structure (SMILES) | pest or weed control at 35 g/ha [1, 3] [%] | pest or weed control at 70 g/ha [1, 3] [%] | pest or weed control at 140 g/ha [1, 3] [%] | pest or weed control at 35 g/ha [1, 4] [%] | pest or weed control at 70 g/ha [1, 4] [%] | pest or weed control at 140 g/ha [1, 4] [%] | pest or weed control at 35 g/ha [1, 5] [%] | pest or weed control at 70 g/ha [1, 5] [%] | pest or weed control at 140 g/ha [1, 5] [%] | pest or weed control at 35 g/ha [1, 6] [%] | pest or weed control at 70 g/ha [1, 6] [%] | pest or weed control at 140 g/ha [1, 6] [%] | pest or weed control at 35 g/ha [1, 7] [%] | pest or weed control at 70 g/ha [1, 7] [%] | pest or weed control at 140 g/ha [1, 7] [%] | pest or weed control at 35 g/ha [1, 8] [%] | pest or weed control at 70 g/ha [1, 8] [%] | pest or weed control at 140 g/ha [1, 8] [%] | pest or weed control at 35 g/ha [2, 9] [%] | pest or weed control at 70 g/ha [2, 9] [%] | further results |
| --- | --- | --- | --- | --- | --- | --- | --- | --- | --- | --- | --- | --- | --- | --- | --- | --- | --- | --- | --- | --- | --- |
| COC(=O)c1nc(-c2ccc3c(c2OC)OC(F)(F)O3)cc(N)c1Cl [Compound 47] | 0 to 29 | 0 to 29 | 0 to 29 | 0 to 29 | 0 to 29 | 0 to 29 | 0 to 29 | 0 to 29 | 0 to 29 | 0 to 29 | 0 to 29 | 0 to 29 | 0 to 29 | 0 to 29 | 0 to 29 | 0 to 29 | 0 to 29 | 0 to 29 | 30 to 44 | 30 to 44 | pest or weed control at 140 g/ha [2, 9]: 45 to 59%; pest or weed control at 35 g/ha [2, 10]: 60 to 74%; pest or weed control at 70 g/ha [2, 10]: 60 to 74%; pest or weed control at 140 g/ha [2, 10]: 60 to 74%; pest or weed control at 35 g/ha [2, 11]: 0 to 29%; pest or weed control at 70 g/ha [2, 11]: 75 to 84%; pest or weed control at 140 g/ha [2, 11]: 85 to 94%; pest or weed control at 35 g/ha [2, 12]: 30 to 44%; pest or weed control at 70 g/ha [2, 12]: 30 to 44%; pest or weed control at 140 g/ha [2, 12]: 45 to 59%; pest or weed control at 35 g/ha [2, 13]: 0 to 29%; pest or weed control at 70 g/ha [2, 13]: 30 to 44%; pest or weed control at 140 g/ha [2, 13]: 60 to 74%; pest or weed control at 35 g/ha [2, 14]: 0 to 29%; pest or weed control at 70 g/ha [2, 14]: 0 to 29%; pest or weed control at 140 g/ha [2, 14]: 0 to 29% |
| COC(=O)c1nc(-c2ccc(Cl)c3c2OC(F)(F)O3)c(F)c(N)c1Cl [Compound 75] | 0 to 29 | 0 to 29 | 0 to 29 | 0 to 29 | 0 to 29 | 0 to 29 | 95 to 100 | 95 to 100 | 95 to 100 | 0 to 29 | 0 to 29 | 0 to 29 | 0 to 29 | 0 to 29 | 0 to 29 | 0 to 29 | 0 to 29 | 45 to 59 | 95 to 100 | 95 to 100 | pest or weed control at 140 g/ha [2, 9]: 95 to 100%; pest or weed control at 35 g/ha [2, 10]: 75 to 84%; pest or weed control at 70 g/ha [2, 10]: 85 to 94%; pest or weed control at 140 g/ha [2, 10]: 95 to 100%; pest or weed control at 35 g/ha [2, 11]: 95 to 100%; pest or weed control at 70 g/ha [2, 11]: 95 to 100%; pest or weed control at 140 g/ha [2, 11]: 95 to 100%; pest or weed control at 35 g/ha [2, 12]: 95 to 100%; pest or weed control at 70 g/ha [2, 12]: 95 to 100%; pest or weed control at 140 g/ha [2, 12]: 95 to 100%; pest or weed control at 35 g/ha [2, 13]: 85 to 94%; pest or weed control at 70 g/ha [2, 13]: 95 to 100%; pest or weed control at 140 g/ha [2, 13]: 95 to 100%; pest or weed control at 35 g/ha [2, 14]: 0 to 29%; pest or weed control at 70 g/ha [2, 14]: 0 to 29%; pest or weed control at 140 g/ha [2, 14]: 0 to 29% |
